Reference: patent US11427548B2 (Arvinas Operations, Inc., priority 2015, dated 2022)
Where two headings read alike, the source gives them in different places.

Tests used:
Androgen Receptor [1] = target: T1, Androgen Receptor (Homo sapiens, UniProt P10275); assay: Androgen Receptor ELISA assay (PathScan AR ELISA) in VCaP cells: AR degradation, Dmax and DC50; assay type: cell-based
T1 construct: endogenous in cells; host or cells: VCaP cells
T1 sequence (P10275 1-920): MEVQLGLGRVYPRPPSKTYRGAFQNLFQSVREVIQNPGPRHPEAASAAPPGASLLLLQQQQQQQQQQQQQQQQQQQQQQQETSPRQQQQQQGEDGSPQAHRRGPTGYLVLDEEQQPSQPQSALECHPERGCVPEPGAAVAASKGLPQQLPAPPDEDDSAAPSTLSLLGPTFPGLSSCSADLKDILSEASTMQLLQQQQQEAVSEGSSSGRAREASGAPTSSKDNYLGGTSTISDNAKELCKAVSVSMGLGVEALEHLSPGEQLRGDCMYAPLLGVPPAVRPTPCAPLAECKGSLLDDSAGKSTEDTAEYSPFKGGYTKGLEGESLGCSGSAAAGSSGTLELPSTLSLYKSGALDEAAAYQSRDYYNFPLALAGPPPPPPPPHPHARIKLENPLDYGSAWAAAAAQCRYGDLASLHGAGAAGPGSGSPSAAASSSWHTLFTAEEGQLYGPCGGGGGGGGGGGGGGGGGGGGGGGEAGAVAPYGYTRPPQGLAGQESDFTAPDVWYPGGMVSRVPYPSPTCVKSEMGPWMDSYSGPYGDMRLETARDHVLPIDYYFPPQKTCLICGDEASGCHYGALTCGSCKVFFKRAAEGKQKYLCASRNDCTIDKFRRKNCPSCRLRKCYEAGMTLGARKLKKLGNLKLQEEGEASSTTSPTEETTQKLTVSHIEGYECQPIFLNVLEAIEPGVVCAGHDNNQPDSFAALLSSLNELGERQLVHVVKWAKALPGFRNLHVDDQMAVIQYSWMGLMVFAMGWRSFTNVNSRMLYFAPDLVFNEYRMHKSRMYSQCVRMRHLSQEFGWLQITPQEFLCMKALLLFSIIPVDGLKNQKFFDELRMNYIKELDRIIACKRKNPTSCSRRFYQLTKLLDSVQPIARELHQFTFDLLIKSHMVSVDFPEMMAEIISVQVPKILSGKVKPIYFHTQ
How it was run: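 VCaP cells in phenol red-free RPMI with 5% charcoal-stripped FBS were grown at least 3 days, then given compound as 7 half-log doses in 0.1% DMSO with 0.1 nM R1881 for 24 h. Lysates went into a sandwich AR ELISA with TMB read at 450 nm.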

Androgen Receptor [2] = target: T2, Androgen Receptor (Homo sapiens, UniProt P10275+P40337, T878A); assay: Androgen Receptor ELISA assay (PathScan AR ELISA) in LNCaP cells: AR degradation, Dmax and DC50; assay type: cell-based; conditions: for DC50: concentration that caused 50% Androgen Receptor degradation
T2 construct: Compounds have been evaluated in this assay in LNCaP and/or VCaP cells utilizing similar protocols; endogenous in cells; host or cells: LNCaP cells

[3] = read-out: VCaP DC50; VCaP cells; concentration that caused 50% Androgen Receptor degradation
[4] = highest percentage of Androgen Receptor degradation
[5] = read-out: VCaP DC50; concentration that caused 50% Androgen Receptor degradation, VCaP cells
[6] = highest percentage of Androgen Receptor degradation observed

T2 sequence (P10275 whole entry T878A): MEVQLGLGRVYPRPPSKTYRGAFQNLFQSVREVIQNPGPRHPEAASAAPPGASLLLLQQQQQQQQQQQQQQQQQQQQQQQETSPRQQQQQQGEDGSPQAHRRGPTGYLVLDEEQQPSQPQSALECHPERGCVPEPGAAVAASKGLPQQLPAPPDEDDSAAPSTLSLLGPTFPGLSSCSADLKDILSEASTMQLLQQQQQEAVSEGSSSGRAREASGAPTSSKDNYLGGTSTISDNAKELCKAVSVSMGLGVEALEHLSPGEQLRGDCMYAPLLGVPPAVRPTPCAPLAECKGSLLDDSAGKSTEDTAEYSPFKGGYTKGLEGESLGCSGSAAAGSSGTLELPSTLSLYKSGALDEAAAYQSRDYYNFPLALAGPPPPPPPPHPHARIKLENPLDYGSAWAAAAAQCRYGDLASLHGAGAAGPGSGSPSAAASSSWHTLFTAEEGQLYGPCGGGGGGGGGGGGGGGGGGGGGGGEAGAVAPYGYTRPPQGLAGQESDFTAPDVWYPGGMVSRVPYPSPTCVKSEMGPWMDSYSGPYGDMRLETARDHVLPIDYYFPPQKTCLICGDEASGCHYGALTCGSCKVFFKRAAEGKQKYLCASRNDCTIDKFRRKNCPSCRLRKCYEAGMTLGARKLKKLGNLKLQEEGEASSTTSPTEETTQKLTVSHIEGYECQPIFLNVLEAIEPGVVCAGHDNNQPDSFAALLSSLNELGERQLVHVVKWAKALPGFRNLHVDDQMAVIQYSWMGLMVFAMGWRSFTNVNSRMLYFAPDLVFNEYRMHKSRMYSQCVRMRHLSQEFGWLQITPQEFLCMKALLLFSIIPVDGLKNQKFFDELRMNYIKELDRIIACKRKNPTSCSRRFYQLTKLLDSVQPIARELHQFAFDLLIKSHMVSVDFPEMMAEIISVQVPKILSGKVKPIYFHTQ
T2 sequence (P40337 whole entry): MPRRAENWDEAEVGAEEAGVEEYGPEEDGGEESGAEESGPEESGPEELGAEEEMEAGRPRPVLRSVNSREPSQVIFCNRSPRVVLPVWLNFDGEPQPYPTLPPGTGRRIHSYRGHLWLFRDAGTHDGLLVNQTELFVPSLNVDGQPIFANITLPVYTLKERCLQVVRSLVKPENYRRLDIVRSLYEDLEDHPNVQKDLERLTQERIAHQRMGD
T2 sequence (Q15369 whole entry partner): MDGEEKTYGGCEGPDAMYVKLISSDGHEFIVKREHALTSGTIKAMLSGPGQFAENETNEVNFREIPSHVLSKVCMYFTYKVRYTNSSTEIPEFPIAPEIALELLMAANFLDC
T2 sequence (Q15370 whole entry partner): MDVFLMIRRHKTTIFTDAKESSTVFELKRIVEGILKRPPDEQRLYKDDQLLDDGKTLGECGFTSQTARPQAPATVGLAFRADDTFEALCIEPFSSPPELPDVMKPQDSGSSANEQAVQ

| Compound | Dmax (Androgen Receptor [1]; VCaP, read-out: VCaP Dmax (%)) [%] | DC50 (Androgen Receptor [1]; [3]) [nM] | DC50 (Androgen Receptor [2]) [nM] | Dmax (Androgen Receptor [2]; [4]) [%] | DC50 (Androgen Receptor [1]; [5]) [nM] | Dmax (Androgen Receptor [2]; [6]) [%] |
| --- | --- | --- | --- | --- | --- | --- |
| Cc1ncsc1-c1ccc(CNC(=O)[C@@H]2C[C@@H](O)CN2C(=O)[C@@H](NC(=O)COCCOc2cccc(CCCOc3ccc(N4C(=S)N(c5ccc(C#N)c(C(F)(F)F)c5)C(=O)C4(C)C)cc3)c2)C(C)(C)C)cc1 [Example 296] | 26 to 50 | < 50 | 51 to 500 | > 71 | – | – |
| Cc1ncsc1-c1ccc(CNC(=O)[C@@H]2C[C@@H](O)CN2C(=O)[C@@H](NC(=O)CCCOCCCOCCCOc2ccc(N3C(=S)N(c4ccc(C#N)c(C(F)(F)F)c4)C(=O)C3(C)C)cc2)C(C)(C)C)cc1 [Example 301] | 51 to 70 | – | < 50 | 51 to 70 | – | – |
| Cc1ncsc1-c1ccc(CNC(=O)[C@@H]2C[C@@H](O)CN2C(=O)[C@@H](NC(=O)COCCOCCCCCOc2ccc(N3C(=S)N(c4ccc(C#N)c(C(F)(F)F)c4)C(=O)C3(C)C)cc2)C(C)(C)C)cc1 [Example 247] | > 71 | < 50 | < 50 | > 71 | – | – |
| Cc1ncsc1-c1ccc(CNC(=O)[C@@H]2C[C@@H](O)CN2C(=O)[C@@H](NC(=O)COCCCCOCCCOc2ccc(N3C(=S)N(c4ccc(C#N)c(C(F)(F)F)c4)C(=O)C3(C)C)cc2)C(C)(C)C)cc1 [Example 52, (2S,4R)-1-[(2S)-2-(2-{4-[3-(4-{3-[4-cyano-3-(trifluoromethyl)phenyl]-5,5-dimethyl-4-oxo-2-sulfanylideneimidazolidin-1-yl}phenoxy)propoxy]butoxy}acetamido)-3,3-dimethylbutanoyl]-4-hydroxy-N-{[4-(4-methyl-1,3-thiazol-5-yl)phenyl]methyl}pyrrolidine-2-carboxamide] | > 71 | – | < 50 | – | < 50 | > 71 |
| Cc1ncsc1-c1ccc(CNC(=O)[C@@H]2C[C@@H](O)CN2C(=O)[C@@H](NC(=O)COCCCCCNC(=O)CCCc2ccc(N3C(=S)N(c4ccc(C#N)c(C(F)(F)F)c4)C(=O)C3(C)C)cc2)C(C)(C)C)cc1 [Example 63, (2S,4R)-1-[(2S)-2-[2-({5-[4-(4-{3-[4-cyano-3-(trifluoromethyl)phenyl]-5,5-dimethyl-4-oxo-2-sulfanylideneimidazolidin-1-yl}phenyl)butanamido]pentyl}oxy)acetamido]-3,3-dimethylbutanoyl]-4-hydroxy-N-{[4-(4-methyl-1,3-thiazol-5-yl)phenyl]methyl}pyrrolidine-2-carboxamide] | 26 to 50 | – | 51 to 500 | – | < 50 | > 71 |
| Cc1ncsc1-c1ccc(CNC(=O)[C@@H]2C[C@@H](O)CN2C(=O)[C@@H](NC(=O)COCCOCCOc2ccc(-c3ccc(N4C(=S)N(c5ccc(C#N)c(C(F)(F)F)c5)C(=O)C4(C)C)cc3F)cc2)C(C)(C)C)cc1 [Example 73, (2S,4R)-1-[(2S)-2-[2-(2-{2-[4-(4-{3-[4-cyano-3-(trifluoromethyl)phenyl]-5,5-dimethyl-4-oxo-2-sulfanylideneimidazolidin-1-yl}-2-fluorophenyl)phenoxy]ethoxy}ethoxy)acetamido]-3,3-dimethylbutanoyl]-4-hydroxy-N-{[4-(4-methyl-1,3-thiazol-5-yl)phenyl]methyl}pyrrolidine-2-carboxamide] | 51 to 70 | – | < 50 | – | < 50 | > 71 |
| Cc1ncsc1-c1ccc(CNC(=O)[C@@H]2C[C@@H](O)CN2C(=O)[C@@H](NC(=O)COCCCCOCCN2CCC(c3ccc(N4C(=S)N(c5ccc(C#N)c(C(F)(F)F)c5)C(=O)C4(C)C)cc3)CC2)C(C)(C)C)cc1 [Example 81, (2S,4R)-1-((S)-2-(2-(4-(2-(4-(4-(3-(4-cyano-3-(trifluoromethyl)phenyl)-5,5-dimethyl-4-oxo-2-thioxoimidazolidin-1-yl)phenyl)piperidin-1-yl)ethoxy)butoxy)acetamido)-3,3-dimethylbutanoyl)-4-hydroxy-N-(4-(4-methylthiazol-5-yl)benzyl)pyrrolidine-2-carboxamide] | < 25 | – | > 501 | – | 51 to 500 | 51 to 70 |
| Cc1ncsc1-c1ccc(CNC(=O)[C@@H]2C[C@@H](O)CN2C(=O)[C@@H](NC(=O)C(C)(C)C(O)CCCOCCCCCOc2ccc(N3C(=S)N(c4ccc(C#N)c(C(F)(F)F)c4)C(=O)C3(C)C)cc2)C(C)(C)C)cc1 (some centres unmarked) [Example 310] | < 25 | – | > 501 | 26 to 50 | – | – |
| Cc1ncsc1-c1ccc(CNC(=O)[C@@H]2C[C@H](O)CN2C(=O)[C@@H](NC(=O)COCCCOCCCCCOc2ccc(N3C(=S)N(c4ccc(C#N)c(C(F)(F)F)c4)C(=O)C3(C)C)cc2)C(C)(C)C)cc1 [Example 242] | 26 to 50 | > 501 | > 501 | 26 to 50 | – | – |
| Cc1ncsc1-c1ccc(CNC(=O)[C@@H]2C[C@@H](O)CN2C(=O)[C@@H](NC(=O)COCCCOCCCCCOc2ccc(N3C(=S)N(c4ccc(C#N)c(C(F)(F)F)c4)C(=O)C3(C)C)cc2F)C(C)(C)C)cc1 [Example 3, (2S,4R)-1-[(2S)-2-[2-(3-{[5-(4-{3-[4-cyano-3-(trifluoromethyl)phenyl]-5,5-dimethyl-4-oxo-2-sulfanylideneimidazolidin-1-yl}-2-fluorophenoxy)pentyl]oxy}propoxy)acetamido]-3,3-dimethylbutanoyl]-4-hydroxy-N-{[4-(4-methyl-1,3-thiazol-5-yl)phenyl]methyl}pyrrolidine-2-carboxamide] | – | – | < 50 | – | – | > 71 |
| Cc1ncsc1-c1ccc(CNC(=O)[C@@H]2C[C@@H](O)CN2C(=O)[C@@H](NC(=O)COCCOCCOCCOc2ccc(N3C(=S)N(c4ccc(C#N)c(C(F)(F)F)c4)C(=O)C3(C)C)cc2F)C(C)(C)C)cc1 [Example 18, (2S,4R)-1-[(2S)-2-[2-(2-{2-[2-(4-{3-[4-cyano-3-(trifluoromethyl)phenyl]-5,5-dimethyl-4-oxo-2-sulfanylideneimidazolidin-1-yl}-2-fluorophenoxy)ethoxy]ethoxy}ethoxy)acetamido]-3,3-dimethylbutanoyl]-4-hydroxy-N-{[4-(4-methyl-1,3-thiazol-5-yl)phenyl]methyl}pyrrolidine-2-carboxamide] | – | – | 51 to 500 | – | – | 51 to 70 |
| Cc1cc(N2C(=O)C(C)(C)N(c3ccc(OCCCCCOCCCOCC(=O)N[C@H](C(=O)N4C[C@H](O)C[C@H]4C(=O)NCc4ccc(-c5scnc5C)cc4)C(C)(C)C)cc3)C2=S)ccc1C#N [Example 6, (2S,4R)-1-[(2S)-2-(2-{3-[(5-{4-[3-(4-cyano-3-methylphenyl)-5,5-dimethyl-4-oxo-2-sulfanylideneimidazolidin-1-yl]phenoxy}pentyl)oxy]propoxy}acetamido)-3,3-dimethylbutanoyl]-4-hydroxy-N-{[4-(4-methyl-1,3-diiazol-5-yl)phenyl]methyl}pyrrolidine-2-carboxamid] | – | – | < 50 | – | – | > 71 |
| Cc1ncsc1-c1ccc(CNC(=O)[C@@H]2C[C@@H](O)CN2C(=O)[C@@H](NC(=O)c2ccc(OCCCOc3ccc(-c4ccc(N5C(=S)N(c6ccc(C#N)c(C(F)(F)F)c6)C(=O)C5(C)C)cc4)cc3)cc2)C(C)(C)C)cc1 [Example 284] | – | – | 51 to 500 | 26 to 50 | – | – |
| Cc1ncsc1-c1ccc(CNC(=O)[C@@H]2C[C@@H](O)CN2C(=O)[C@@H](NC(=O)COCCOCCOCCOc2ccc(N3C(=S)N(c4ccc([N+](=O)[O-])c(C(F)(F)F)c4)C(=O)C3(C)C)cc2)C(C)(C)C)cc1 [Example 19, (2S,4R)-1-[(2S)-2-[2-(2-{2-[2-(4-{5,5-dimethyl-3-[4-nitro-3-(trifluoromethyl)phenyl]-4-oxo-2-sulfanylideneimidazolidin-1-yl}phenoxy)ethoxy]ethoxy}ethoxy)acetamido]-3,3-dimethylbutanoyl]-4-hydroxy-N-{[4-(4-methyl-1,3-thiazol-5-yl)phenyl]methyl}pyrrolidine-2-carboxamide] | – | – | < 50 | – | – | 51 to 70 |
